These results are taken from ChEMBL document CHEMBL1129820, “1,4-Bis-(2,3-epoxypropylamino)-9,10-anthracenedione and related compounds as potent antifungal and antimicrobial agents” (Bioorg Med Chem Lett, 1997).

By MIC is commonly meant the smallest concentration in the dilution series that meets the test's criterion for growth inhibition. Low readings indicate a more susceptible organism, high ones a less susceptible organism.

Experiment [1] concerns Auxenochlorella pyrenoidosa. Description: The compound was evaluated for antialgal activity against Chlorella pyrenoidosa. In kind it is functional.
The test system of experiment [2] is Dolichospermum flos-aquae. The experiment can be described thus: The compound was evaluated for antialgal activity against Anabaena flos-aquae. In kind it is functional.
The test system of experiment [3] is Pseudomonas fluorescens. Description: The compound was evaluated for antibacterial activity against Pseudomonas fluorescence at pH 9.0. In kind it is functional.
The test system of experiment [4] is Pseudomonas fluorescens. The experiment can be described thus: The compound was evaluated for antibacterial activity against Pseudomonas fluorescence at pH 5.5. The format is functional.
The subject of experiment [5] is Pseudomonas fluorescens. Description: The compound was evaluated for antibacterial activity against Pseudomonas fluorescence at pH 8.0. The format is functional.
For experiment [6], the system named is Pseudomonas fluorescens. Description: The compound was evaluated for antibacterial activity against Pseudomonas fluorescence at pH 7.0. In kind it is functional.
The test system of experiment [7] is Pseudomonas fluorescens. Description: The compound was evaluated for antibacterial activity against the Pseudomonas fluorescence at pH 7.0. The format is functional.
Experiment [8] has as its system Pseudomonas fluorescens. Description: The compound was evaluated for antibacterial activity against Pseudomonas fluorescence at pH 7.0 in trypticase soy broth medium. In kind it is functional.
The subject of experiment [9] is Aureobasidium pullulans. The experiment can be described thus: The compound was evaluated for antifungal activity against Aureobasidium pullulans at pH 7.5 (end point 25 p.p.m. in separate test). The format is functional.
The test system of experiment [10] is Aspergillus niger. Description: The compound was evaluated for antifungal activity against Aspergillus niger at pH 7.5 (end point 0.25 p.p.m. in separate test). In kind it is functional.
A further experiment relates to Escherichia coli. The experiment can be described thus: The compound was evaluated for antibacterial activity against Escherichia coli at pH 7.0. In kind it is functional.
Experiment [11] has as its system Chaetomium globosum. The experiment can be described thus: The compound was evaluated for antifungal activity against Chaetomium globosum at pH 7.5 (end point <0.25 p.p.m. in separate test). The format is functional.
Experiment [12] deals with Pseudomonas fluorescens. Description: The compound was evaluated for antibacterial activity against Pseudomonas fluorescence at pH 4.0 in trypticase soy broth medium. The format is functional.
The next experiment relates to Phytophthora capsici. Description: The compound was evaluated for antifungal activity against the fungi Phytophthora capsici. In kind it is functional.
In another experiment the test system is Globisporangium ultimum. The experiment can be described thus: The compound was evaluated for antifungal activity against the fungi Pythium ultimum. In kind it is functional, organism-based.
In experiment [13] the test system is Pseudomonas fluorescens. The experiment can be described thus: The compound was evaluated for antifungal activity against Pseudomonas fluorescence in separate test(endopoint 0.25 p.p.m.) at pH 7.0. The format is functional.
Experiment [14] concerns Pseudomonas fluorescens. The experiment can be described thus: The compound was evaluated for antibacterial activity against Pseudomonas fluorescence at pH 9.0 in trypticase soy broth medium. In kind it is functional.
For a further experiment, the system named is Pseudomonas aeruginosa. The experiment can be described thus: The compound was evaluated for antibacterial activity against Pseudomonas aeruginosa at pH 7.0. The format is functional.
Experiment [15] deals with Staphylococcus aureus. The experiment can be described thus: The compound was evaluated for antifungal activity against Staphylococcus aureus in separate test(endopoint 0.25 p.p.m.) at pH 7.0. The format is functional.
The next experiment deals with Talaromyces funiculosus. Description: The compound was evaluated for antifungal activity against Penicillium funiculosum at pH 7.5 (end point 2.5 p.p.m. in separate test). The format is functional.
Experiment [16] deals with Amorphotheca resinae. Description: The compound was evaluated for antifungal activity against Cladosporium resinae at pH 7.5 (end point <0.25 p.p.m. in separate test). The format is functional.
The test system of experiment [17] is Staphylococcus aureus. The experiment can be described thus: The compound was evaluated for antibacterial activity against Staphylococcus aureus at pH 7.0. In kind it is functional.
Experiment [18] deals with Aureobasidium pullulans. Description: The compound was evaluated for antifungal activity against Aureobasidium pullulans at pH 7.5. In kind it is functional.
Experiment [19] deals with Aspergillus niger. The experiment can be described thus: The compound was evaluated for antifungal activity against Aspergillus niger at pH 7.5. The format is functional.
The test system of experiment [20] is Aureobasidium pullulans. Description: The compound was evaluated for antifungal activity against Aureobasidium pullulans at pH 7.5 (end point <0.25 p.p.m. in separate test). In kind it is functional.
The subject of experiment [21] is Pseudomonas fluorescens. The experiment can be described thus: The compound was evaluated for antibacterial activity against Pseudomonas fluorescence at pH 4.0. In kind it is functional.
Experiment [22] relates to Chaetomium globosum. Description: The compound was evaluated for antifungal activity against Chaetomium globosum at pH 7.5 (end point 2.5 p.p.m. in separate test). The format is functional.
Experiment [23] relates to Amorphotheca resinae. Description: The compound was evaluated for antifungal activity against Cladosporium resinae at pH 7.5 (end point 2.5 p.p.m. in separate test). In kind it is functional.

≈ marks a conversion by molar mass, not a printed value.

Consider `Cn1sc(Cl)cc1=O.Cn1sccc1=O`, for which the values for the minimum inhibitory concentration (MIC) in experiment [1] and in experiment [2] were 0.3 µg/mL and 0.1 µg/mL, respectively.
As to `O=C1c2ccccc2C(=O)c2c(NCC(Br)CO)ccc(NCC(Br)CO)c21` (stereo not given), the minimal inhibitory concentration (MIC) in the experiment on Pseudomonas fluorescens [3] came out at 0.2 µg/mL (≈ 0.39 µM); in the experiment with Pseudomonas fluorescens [4] it was 100 µg/mL (≈ 195 µM); with Pseudomonas fluorescens [5] it was 0.4 µg/mL (≈ 0.781 µM); against Pseudomonas fluorescens [6], 50 µg/mL (≈ 97.6 µM).
For `O=C1c2ccccc2C(=O)c2c(NCC(Cl)CO)ccc(NCC(Cl)CO)c21` (stereo not given), the MIC in the experiment on Pseudomonas fluorescens [3] is 50 µg/mL (≈ 118 µM); against Pseudomonas fluorescens [4], greater than 100 µg/mL; against Pseudomonas fluorescens [5], 50 µg/mL (≈ 118 µM); in the experiment on Pseudomonas fluorescens [6] it was 25 µg/mL (≈ 59.1 µM).
Take `CCCCCCCCn1sc(Cl)c(Cl)c1=O`: the MIC in the experiment on Pseudomonas fluorescens [7] was less than 0.2 µg/mL.
`O=C1c2ccccc2C(=O)c2c(NCC3CO3)ccc(NCC3CO3)c21` (stereo not given): the minimal inhibitory concentration (MIC) with Pseudomonas fluorescens [3] is 0.05 µg/mL (≈ 0.143 µM); against Pseudomonas fluorescens [8], 0.2 µg/mL (≈ 0.571 µM); in the experiment with Pseudomonas fluorescens [7] it was less than 0.13 µg/mL; in the experiment on Aureobasidium pullulans [9], 0.8 µg/mL (≈ 2.28 µM); against Aspergillus niger [10], 0.4 µg/mL (≈ 1.14 µM); against Escherichia coli, 250 µg/mL (≈ 714 µM). In addition, the minimal inhibitory concentration (MIC) against Chaetomium globosum [11] was 0.4 µg/mL (≈ 1.14 µM); against Pseudomonas fluorescens [4] it was 0.025 µg/mL (≈ 0.0714 µM); against Pseudomonas fluorescens [12], 0.2 µg/mL (≈ 0.571 µM); in the experiment on Phytophthora capsici it was 0.2 µg/mL (≈ 0.571 µM); against Pseudomonas fluorescens [5], 0.05 µg/mL (≈ 0.143 µM); in experiment [1], less than 2 µg/mL. Besides, the minimal inhibitory concentration (MIC) against Pseudomonas fluorescens [13] is 0.2 µg/mL (≈ 0.571 µM); in experiment [2], less than 2 µg/mL; in the experiment on Pseudomonas fluorescens [14], 0.2 µg/mL (≈ 0.571 µM); against Pseudomonas aeruginosa it was 63 µg/mL (≈ 180 µM); in the experiment with Staphylococcus aureus [15], 0.2 µg/mL (≈ 0.571 µM); against Pseudomonas fluorescens [6], 0.05 µg/mL (≈ 0.143 µM). The MIC against Talaromyces funiculosus was 0.8 µg/mL (≈ 2.28 µM); against Amorphotheca resinae [16], 0.4 µg/mL (≈ 1.14 µM); in the experiment on Staphylococcus aureus [17] it was less than 0.13 µg/mL. In the experiment on Globisporangium ultimum, the EC50 is 0.03 p.p.m.
For the molecule `O=C1c2ccccc2C(=O)c2c(OCC3CO3)ccc(OCC3CO3)c21` (stereo not given), the MIC in the experiment on Pseudomonas fluorescens [7] is 4 µg/mL (≈ 11.4 µM); with Escherichia coli it was greater than 250 µg/mL; with Aureobasidium pullulans [18], greater than 250 µg/mL; against Aspergillus niger [19], greater than 250 µg/mL; in the experiment on Pseudomonas aeruginosa, greater than 250 µg/mL; in the experiment on Staphylococcus aureus [17] it was greater than 250 µg/mL. In the experiment on Globisporangium ultimum, this molecule showed an EC50 of 3.6 p.p.m.
Consider `COCC(=O)N(c1c(C)cccc1C)C(C)C(=O)OC` (stereo not given) [METALAXYL], for which 0.4 µg/mL (≈ 1.43 µM) was the least that counted as inhibitory against Phytophthora capsici (MIC). In the experiment with Globisporangium ultimum, this molecule displayed an EC50 of 0.017 p.p.m.
Take `CCCCNC(=O)OC#CCI`: the minimum inhibitory concentration (MIC) against Aureobasidium pullulans [20] was 0.1 µg/mL (≈ 0.356 µM); against Pseudomonas fluorescens [3], 50 µg/mL (≈ 178 µM); against Pseudomonas fluorescens [21], 50 µg/mL (≈ 178 µM); against Aspergillus niger [10], 1.6 µg/mL (≈ 5.69 µM); against Chaetomium globosum [22], 1.6 µg/mL (≈ 5.69 µM); against Pseudomonas fluorescens [6] it was 0.2 µg/mL (≈ 0.712 µM). In addition, the results for the minimum inhibitory concentration (MIC) with Talaromyces funiculosus and against Amorphotheca resinae [23] were 0.8 µg/mL (≈ 2.85 µM) and 25 µg/mL (≈ 88.9 µM), respectively.
